Here are results for 35 compounds from PubChem BioAssay AID463074 (Broad Institute, 2010).

The source made the active and inactive calls.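 The calls were made as follows: active = AC50 no more than tenfold above the top dose tested, or full inhibition at every dose with a flat fit (cut at about 19 µM in these data); inconclusive = flat curve fit with inhibition between 30% and 70%, or poor fit; inactive = AC50 more than tenfold above the top dose tested.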 Bounds are passed on as bounds.

A word on the AC50: it is the concentration at which the activity in the assay is half-maximal.

This experiment relates to HMLE_sh_eGFP viability, CellTiter-Glo luminescence, 72 h. Kind of experiment: viability loss of HMLE_sh_eGFP cells – cell-based, luminescence, counter-screen for HMLE_sh_ECad selective toxicity project, dose response (AID 463074).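 Also: counterscreen control line to flag general toxicity for the HMLE_sh_ECad screen; potency for loss of viability as luminescence drops below DMSO wells.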 Background: A counterscreen serves to expose hits that act by an unwanted route or on another target.
Turning to `Cc1ccc(CNc2cnn(C34CC5CC(CC(C5)C3)C4)c(=O)c2Cl)cc1`, the AC50 was 2.44 µM. Turning to `O=c1nc(/C=C/c2ccc(Cl)cc2Cl)cc(C(F)(F)F)[nH]1`, the AC50 is 1.55 µM.

`CC(=O)NNc1cccc(Cl)n1`: the AC50 was > 19.5 µM (inactive). Consider `Nc1ccccc1N=Cc1c(O)n(CCC2=CCCCC2)c(=O)[nH]c1=O`, for which the AC50 was > 19.5 µM (inactive). In the case of `C=CCn1c(SCc2c(C)noc2C)nc2sc3c(c2c1=O)CCCCC3` it was 1.42 µM; in that of `Cc1ccc(/C=N/NC(=O)c2ccc3c(c2)OCCO3)s1`, 2.49 µM; in that of `COc1cccc(-c2sc3ccc(OC)cc3c2C#CC2(O)CCCCC2)c1`, 7.25 µM.

`COc1c(OC(C)=O)ccc(/C=C/c2ccc3cccc(OCc4ccccc4)c3n2)c1[N+](=O)[O-]`: the AC50 is 3.37 µM. In the case of `O=C(/C=C/c1c[nH]c2ccccc12)c1cccc2ccccc12` it was 5.3 µM; in that of `Cc1ccc(Cl)cc1N1CCN(C(CC(C)C)c2nnnn2CC2CCCO2)CC1` (stereo not given), 0.808 µM; in that of `CCN(CC)c1ccc(/C=N/NC(=O)CCC(=O)NCc2ccccc2)c(O)c1`, 8.23 µM.

`C[C@H]1CN([C@@H](C)CO)C(=O)Cc2cc(NC(=O)CCC(F)(F)F)ccc2O[C@H]1CN(C)Cc1ccc(-c2ccccc2)cc1`: the AC50 was 6.9 µM.

Regarding `Cc1ccc(CN2CCSc3ccc(C(=O)NCc4ccco4)cc32)cc1`, the AC50 was > 19.5 µM (inactive). In the case of `C=C(CC[C@@H](O)C(C)(C)O)[C@H]1CC[C@]2(C)[C@@H]1CCC1[C@@]3(C)CC[C@H](O)C(C)(C)C3CC[C@]12C` (stereo not given in full), the AC50 was 1.13 µM. Take `Cc1ccc(-c2cc(C(=O)N3CCN(c4ccc(O)cc4)CC3)c3ccccc3n2)cc1`: the AC50 is 8.38 µM.

`Cc1cc(C)nc(SCc2ccc(C(=O)NNC(=O)Nc3cccc(Cl)c3)cc2)n1`: the concentration at half-maximal activity (AC50) was 3.92 µM.

As for `CCCCCc1cc(=O)oc2c(C(CCN3CCCC(C)C3)c3ccc(N(C)C)cc3)c(OC)cc(OC)c12` (stereo not given), the AC50 is 6.69 µM.

On to `Cc1oc2c(F)c(F)c(F)c(F)c2c1S(=O)(=O)Nc1cccc(C(F)(F)F)c1`, for which the AC50 is 4.95 µM. Regarding `O=C(N/N=C/c1c[nH]c2ccccc12)C1CC1(c1ccccc1)c1ccccc1` (stereo not given), the AC50 is 7.04 µM. Consider `O=[N+]([O-])c1cccc(-c2csc(N/N=C/c3cccc(O)c3)n2)c1`, for which the concentration at half-maximal activity (AC50) was 3.7 µM. In the case of `C/C(=N\NC(=S)NC(C)C)c1ccc(C(C)(C)C)cc1` it was 10 µM; in that of `O=C1c2cccc3cccc(c23)C(=O)N1CCN1CCN(CC(O)COc2ccc3ccccc3c2)CC1` (stereo not given), 6.81 µM; in that of `O=C/C=C/c1c(-c2ccccc2)cc2oc3ccccc3cc1-2`, 9.18 µM.

As to `O=C1/C(=C\c2cccc(O)c2O)SC(=S)N1Cc1ccccc1`, the AC50 was 4.85 µM. With `O=[N+]([O-])c1cccc(-c2csc(Nc3ccccc3)n2)c1`, the AC50 was 3.88 µM. As to `COc1ccc(C(=O)Nc2ccc(OCC(F)(F)C(F)F)c(C(F)(F)F)c2)cc1OC`, the AC50 is 5.48 µM. `CCn1cc([N+](=O)[O-])c(C(=O)Nc2nc(-c3ccc(C)cc3)c(C)s2)n1`: the AC50 is 5.54 µM. Turning to `O=C(Nc1cccc(-c2csc(Nc3ccccc3)n2)c1)c1ccccc1`, the AC50 is 4.45 µM.

For the compound `CCOC(=O)/C(=C\c1ccc(Cl)cc1)c1nc2sc(C)c(C)c2c(=O)[nH]1`, the AC50 is 1.54 µM. On to `O=C(NCCC1=CCCCC1)c1coc(=O)c(Br)c1`, for which the concentration at half-maximal activity (AC50) was 11.7 µM. For `Cc1ccc(C(C)C)c(OCc2nn(CC(=O)c3ccc(Cl)cc3)c3[n+]2CCCCC3)c1`, the AC50 is 3.22 µM.

`Oc1ccc(N=Nc2ccc(Br)cc2)c(O)c1`: the AC50 is 17.3 µM. For `C[C@@H]1O[C@@H](O[C@H]2C[C@@H](O)[C@]3(CO)[C@H]4[C@H](O)C[C@]5(C)[C@@H](C6=CC(=O)OC6)CC[C@]5(O)[C@@H]4CC[C@]3(O)C2)[C@H](O)[C@H](O)[C@H]1O`, the concentration at half-maximal activity (AC50) is less than 0.16 µM. For `COc1c(Cl)cc(Cl)cc1/C=C/C(=O)c1ccc(NC(=O)c2cccs2)cc1`, the AC50 is 1.31 µM. For the compound `CCCNC(=O)c1onc(CSc2ccc(Cl)cc2)c1C(=O)NCCC(C)C`, the AC50 is 2.99 µM.
